# According to the kinase profiling compilation of Christmann-Franck et al. (2016):
# What was measured:
# Assay in all cases: radiometric filter-binding kinase assay, Kinase HotSpot
# Conditions in all cases: compound 0.5 µM; ATP 10 µM
# TEC (human) = TEC (human) (UniProt P42680)
# MAP3K10 (human) = MAP3K10 (human) (UniProt Q02779)
# EPHB1 (human) = EPHB1 (human) (UniProt P54762)
# MERTK (human) = MERTK (human) (UniProt Q12866)
# FLT3 (human) = FLT3 (human) (UniProt P36888)
# RIPK2 (human) = RIPK2 (human) (UniProt O43353)
# CLK2 (human) = CLK2 (human) (UniProt P49760)
# RPS6KB2 (human) = RPS6KB2 (human) (UniProt Q9UBS0)
# BLK (human) = BLK (human) (UniProt P51451)
# TSSK2 (human) = TSSK2 (human) (UniProt Q96PF2)
# MELK (human) = MELK (human) (UniProt Q14680)
# MAP3K9 (human) = MAP3K9 (human) (UniProt P80192)
# CSNK1E (human) = CSNK1E (human) (UniProt P49674)
# AURKB (human) = AURKB (human) (UniProt Q96GD4)
# PKN1 (human) = PKN1 (human) (UniProt Q16512)
# ROCK2 (human) = ROCK2 (human) (UniProt O75116)
# ERBB4 (human) = ERBB4 (human) (UniProt Q15303)
# WNK2 (human) = WNK2 (human) (UniProt Q9Y3S1)
# PHKG1 (human) = PHKG1 (human) (UniProt Q16816)
# MYLK2 (human) = MYLK2 (human) (UniProt Q9H1R3)
# FGFR4 (human) = FGFR4 (human) (UniProt P22455)
# CDK7 CCNH MNAT1 (human) = CDK7 CCNH MNAT1 (human) (UniProt P50613+P51948+P51946)
# GRK5 (human) = GRK5 (human) (UniProt P34947)
# HIPK4 (human) = HIPK4 (human) (UniProt Q8NE63)
# CSNK1G3 (human) = CSNK1G3 (human) (UniProt Q9Y6M4)
# DYRK4 (human) = DYRK4 (human) (UniProt Q9NR20)
# [1] = tested on: MKNK1 (human), Q9BUB5 [T385D; 165-205 del]
# DAPK1 (human) = DAPK1 (human) (UniProt P53355)
# MAPK9 (human) = MAPK9 (human) (UniProt P45984)
# DCLK2 (human) = DCLK2 (human) (UniProt Q8N568)
# CDK4 CCND3 (human) = CDK4 CCND3 (human) (UniProt P30281+P11802)
# AKT1 (human) = AKT1 (human) (UniProt P31749)
# INSRR (human) = INSRR (human) (UniProt P14616)
# PIM1 (human) = PIM1 (human) (UniProt P11309)
# RPS6KA4 KD2 (human) = RPS6KA4 KD2 (human) (UniProt O75676)
# [2] = target: TYK2 JH1 catalytic (human) (UniProt P29597)
# SRC (human) = SRC (human) (UniProt P12931)
# FYN (human) = FYN (human) (UniProt P06241)
# INSR (human) = INSR (human) (UniProt P06213)
# STK11 (human) = STK11 (human) (UniProt Q15831)
# KDR (human) = KDR (human) (UniProt P35968)
# [3] = tested on: PRKCQ (human), Q04759 [P330L]
# Chain of RPS6KA4 KD2 (human) (O75676 whole entry, looked up): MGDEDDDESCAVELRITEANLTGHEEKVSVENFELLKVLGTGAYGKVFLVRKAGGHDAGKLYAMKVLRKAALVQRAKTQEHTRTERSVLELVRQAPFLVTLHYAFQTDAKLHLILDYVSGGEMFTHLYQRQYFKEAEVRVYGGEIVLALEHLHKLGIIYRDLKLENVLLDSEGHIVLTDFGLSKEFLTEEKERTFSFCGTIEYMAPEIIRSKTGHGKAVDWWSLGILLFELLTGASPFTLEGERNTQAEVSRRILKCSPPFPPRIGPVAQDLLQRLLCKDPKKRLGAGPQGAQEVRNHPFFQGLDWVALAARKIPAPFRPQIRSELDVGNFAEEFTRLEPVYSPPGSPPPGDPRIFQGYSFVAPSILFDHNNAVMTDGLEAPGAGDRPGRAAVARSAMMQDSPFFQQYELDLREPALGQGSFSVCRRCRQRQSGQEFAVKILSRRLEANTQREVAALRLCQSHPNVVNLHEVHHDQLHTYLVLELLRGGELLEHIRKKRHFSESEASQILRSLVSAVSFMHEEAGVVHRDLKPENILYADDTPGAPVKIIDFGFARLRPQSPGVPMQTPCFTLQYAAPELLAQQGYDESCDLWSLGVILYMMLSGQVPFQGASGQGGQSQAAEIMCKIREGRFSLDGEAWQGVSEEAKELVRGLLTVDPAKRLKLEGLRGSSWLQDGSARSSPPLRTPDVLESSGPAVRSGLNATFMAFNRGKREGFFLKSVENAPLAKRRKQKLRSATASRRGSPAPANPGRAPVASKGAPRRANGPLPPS
# Chain of SRC (human) (P12931 whole entry, looked up): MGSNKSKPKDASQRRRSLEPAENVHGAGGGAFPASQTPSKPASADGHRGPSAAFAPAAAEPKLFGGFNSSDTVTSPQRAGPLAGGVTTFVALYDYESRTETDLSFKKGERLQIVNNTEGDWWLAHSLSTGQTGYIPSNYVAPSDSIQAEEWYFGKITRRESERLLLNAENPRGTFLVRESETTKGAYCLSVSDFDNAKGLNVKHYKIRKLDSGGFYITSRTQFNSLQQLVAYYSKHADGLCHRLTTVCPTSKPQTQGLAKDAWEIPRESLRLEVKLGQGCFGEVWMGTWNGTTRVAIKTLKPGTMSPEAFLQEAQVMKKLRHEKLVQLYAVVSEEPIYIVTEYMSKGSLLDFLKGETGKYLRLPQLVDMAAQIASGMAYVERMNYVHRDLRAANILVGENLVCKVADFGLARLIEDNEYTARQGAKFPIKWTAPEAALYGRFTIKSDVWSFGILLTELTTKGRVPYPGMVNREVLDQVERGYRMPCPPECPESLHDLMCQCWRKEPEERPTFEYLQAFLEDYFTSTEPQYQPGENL
# Chain of ROCK2 (human) (O75116 whole entry, looked up): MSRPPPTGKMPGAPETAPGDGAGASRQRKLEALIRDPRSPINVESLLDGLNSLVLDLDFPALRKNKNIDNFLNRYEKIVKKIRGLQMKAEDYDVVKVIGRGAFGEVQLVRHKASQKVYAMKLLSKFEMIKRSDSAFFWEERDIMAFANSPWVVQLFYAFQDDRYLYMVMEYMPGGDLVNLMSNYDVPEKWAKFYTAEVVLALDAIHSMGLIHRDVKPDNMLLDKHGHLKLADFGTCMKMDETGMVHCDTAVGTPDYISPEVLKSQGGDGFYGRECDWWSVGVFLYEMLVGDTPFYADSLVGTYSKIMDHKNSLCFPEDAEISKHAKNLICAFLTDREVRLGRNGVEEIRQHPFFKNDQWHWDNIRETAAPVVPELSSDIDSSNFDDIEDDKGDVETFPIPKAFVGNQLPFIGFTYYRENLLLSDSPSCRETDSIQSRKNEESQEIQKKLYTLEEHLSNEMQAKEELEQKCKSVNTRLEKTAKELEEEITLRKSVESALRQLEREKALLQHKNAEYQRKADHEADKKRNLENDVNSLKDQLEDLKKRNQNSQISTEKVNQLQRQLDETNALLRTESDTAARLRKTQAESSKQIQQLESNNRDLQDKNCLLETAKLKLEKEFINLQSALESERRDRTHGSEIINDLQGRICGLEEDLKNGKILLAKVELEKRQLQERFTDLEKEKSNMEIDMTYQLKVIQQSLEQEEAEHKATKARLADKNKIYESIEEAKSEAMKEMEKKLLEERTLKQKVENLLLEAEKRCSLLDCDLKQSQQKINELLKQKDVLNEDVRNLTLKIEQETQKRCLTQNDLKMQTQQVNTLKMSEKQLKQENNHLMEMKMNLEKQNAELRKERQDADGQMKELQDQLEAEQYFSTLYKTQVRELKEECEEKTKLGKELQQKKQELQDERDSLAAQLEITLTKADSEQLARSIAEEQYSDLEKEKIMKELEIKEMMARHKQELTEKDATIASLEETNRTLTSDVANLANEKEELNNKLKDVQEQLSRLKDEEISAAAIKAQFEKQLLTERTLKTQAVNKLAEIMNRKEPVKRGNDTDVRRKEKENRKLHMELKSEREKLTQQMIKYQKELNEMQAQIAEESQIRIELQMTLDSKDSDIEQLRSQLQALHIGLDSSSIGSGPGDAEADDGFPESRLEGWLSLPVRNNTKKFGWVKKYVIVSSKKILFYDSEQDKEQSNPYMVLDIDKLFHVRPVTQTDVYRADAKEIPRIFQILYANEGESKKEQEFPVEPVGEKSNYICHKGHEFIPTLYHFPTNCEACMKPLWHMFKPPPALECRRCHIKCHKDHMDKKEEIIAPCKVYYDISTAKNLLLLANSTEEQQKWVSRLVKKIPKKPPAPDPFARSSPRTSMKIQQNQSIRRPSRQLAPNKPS
# Chain of MAPK9 (human) (P45984 whole entry, looked up): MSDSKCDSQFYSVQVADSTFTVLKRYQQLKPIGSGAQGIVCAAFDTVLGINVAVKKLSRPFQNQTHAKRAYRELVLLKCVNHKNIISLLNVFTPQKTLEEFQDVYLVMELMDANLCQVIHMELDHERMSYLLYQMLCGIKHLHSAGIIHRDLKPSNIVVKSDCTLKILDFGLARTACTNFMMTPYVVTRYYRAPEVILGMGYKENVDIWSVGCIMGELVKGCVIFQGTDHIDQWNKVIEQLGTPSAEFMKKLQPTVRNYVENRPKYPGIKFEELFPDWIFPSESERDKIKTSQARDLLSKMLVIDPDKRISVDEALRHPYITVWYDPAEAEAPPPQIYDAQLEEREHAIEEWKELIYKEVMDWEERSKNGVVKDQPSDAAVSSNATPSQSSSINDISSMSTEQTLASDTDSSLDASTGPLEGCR
# Chain of PIM1 (human) (P11309 whole entry, looked up): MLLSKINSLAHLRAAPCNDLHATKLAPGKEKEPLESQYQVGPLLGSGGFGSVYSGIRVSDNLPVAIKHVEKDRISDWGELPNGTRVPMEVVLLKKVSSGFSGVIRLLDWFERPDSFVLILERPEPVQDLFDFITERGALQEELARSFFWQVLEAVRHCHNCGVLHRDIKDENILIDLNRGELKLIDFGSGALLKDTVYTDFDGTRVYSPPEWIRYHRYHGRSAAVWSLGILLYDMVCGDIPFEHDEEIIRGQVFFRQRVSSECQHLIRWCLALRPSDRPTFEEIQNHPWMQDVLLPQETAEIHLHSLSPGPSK
# Chain of INSRR (human) (P14616 whole entry, looked up): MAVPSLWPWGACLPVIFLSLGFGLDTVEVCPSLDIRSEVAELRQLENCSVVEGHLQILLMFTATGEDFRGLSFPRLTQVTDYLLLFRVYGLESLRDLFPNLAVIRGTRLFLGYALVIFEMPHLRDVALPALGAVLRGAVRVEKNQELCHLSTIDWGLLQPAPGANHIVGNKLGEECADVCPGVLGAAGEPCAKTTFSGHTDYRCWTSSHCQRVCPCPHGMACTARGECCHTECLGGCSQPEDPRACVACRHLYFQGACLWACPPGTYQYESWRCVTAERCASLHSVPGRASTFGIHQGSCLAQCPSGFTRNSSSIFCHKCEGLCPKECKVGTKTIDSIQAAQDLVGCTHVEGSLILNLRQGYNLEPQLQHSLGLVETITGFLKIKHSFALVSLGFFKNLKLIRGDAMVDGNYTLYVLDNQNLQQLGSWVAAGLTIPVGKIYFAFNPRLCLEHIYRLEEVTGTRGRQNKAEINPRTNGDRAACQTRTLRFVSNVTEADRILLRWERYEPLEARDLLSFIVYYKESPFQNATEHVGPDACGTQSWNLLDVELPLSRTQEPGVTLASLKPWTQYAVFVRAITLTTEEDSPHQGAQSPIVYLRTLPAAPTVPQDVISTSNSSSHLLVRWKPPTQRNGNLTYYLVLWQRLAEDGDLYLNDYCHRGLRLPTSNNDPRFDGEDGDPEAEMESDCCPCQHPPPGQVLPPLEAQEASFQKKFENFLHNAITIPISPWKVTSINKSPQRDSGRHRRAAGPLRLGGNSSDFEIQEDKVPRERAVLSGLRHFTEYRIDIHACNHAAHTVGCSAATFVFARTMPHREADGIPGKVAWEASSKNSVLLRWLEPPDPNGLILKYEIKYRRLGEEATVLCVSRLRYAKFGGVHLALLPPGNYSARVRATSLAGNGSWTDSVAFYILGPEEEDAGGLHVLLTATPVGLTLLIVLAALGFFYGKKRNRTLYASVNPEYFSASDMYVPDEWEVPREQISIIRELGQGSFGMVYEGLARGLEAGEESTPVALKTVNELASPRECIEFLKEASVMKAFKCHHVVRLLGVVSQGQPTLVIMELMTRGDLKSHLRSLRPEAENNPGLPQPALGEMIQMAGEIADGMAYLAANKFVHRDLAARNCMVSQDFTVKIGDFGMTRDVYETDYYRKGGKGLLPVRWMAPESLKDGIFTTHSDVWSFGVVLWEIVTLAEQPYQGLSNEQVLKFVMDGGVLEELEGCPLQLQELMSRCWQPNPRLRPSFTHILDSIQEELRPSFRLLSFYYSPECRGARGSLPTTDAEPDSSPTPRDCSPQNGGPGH
# Chain of AURKB (human) (Q96GD4 whole entry, looked up): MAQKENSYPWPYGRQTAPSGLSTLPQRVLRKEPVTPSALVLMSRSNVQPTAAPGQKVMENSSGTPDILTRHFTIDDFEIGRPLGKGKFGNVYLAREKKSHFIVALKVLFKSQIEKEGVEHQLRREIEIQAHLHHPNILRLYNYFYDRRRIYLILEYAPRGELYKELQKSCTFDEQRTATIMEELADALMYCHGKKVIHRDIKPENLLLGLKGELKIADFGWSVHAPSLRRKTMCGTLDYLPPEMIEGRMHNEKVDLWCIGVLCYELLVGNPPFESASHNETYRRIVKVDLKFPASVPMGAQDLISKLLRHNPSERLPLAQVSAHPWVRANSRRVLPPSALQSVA
smiles,measurement,setting,value
N#C/C(=C\c1ccc(O)c(O)c1)C(=O)NCc1ccccc1,residual activity,TEC (human),123%
same,residual activity,MAP3K10 (human),100%
same,residual activity,EPHB1 (human),87.4%
same,residual activity,MERTK (human),89%
same,residual activity,FLT3 (human),92.8%
same,residual activity,RIPK2 (human),101%
same,residual activity,CLK2 (human),110%
same,residual activity,RPS6KB2 (human),94.7%
same,residual activity,BLK (human),95.6%
same,residual activity,TSSK2 (human),90%
same,residual activity,MELK (human),100%
same,residual activity,MAP3K9 (human),95.5%
same,residual activity,CSNK1E (human),86.3%
same,residual activity,AURKB (human),94.4%
same,residual activity,PKN1 (human),97.6%
same,residual activity,ROCK2 (human),94%
same,residual activity,ERBB4 (human),80.9%
same,residual activity,WNK2 (human),104%
same,residual activity,PHKG1 (human),92.6%
same,residual activity,MYLK2 (human),97.9%
same,residual activity,FGFR4 (human),84.2%
same,residual activity,CDK7 CCNH MNAT1 (human),120%
same,residual activity,GRK5 (human),108%
same,residual activity,HIPK4 (human),106%
same,residual activity,CSNK1G3 (human),104%
same,residual activity,DYRK4 (human),106%
same,residual activity,[1],77.8%
same,residual activity,DAPK1 (human),99.7%
same,residual activity,MAPK9 (human),103%
same,residual activity,DCLK2 (human),101%
same,residual activity,CDK4 CCND3 (human),98%
same,residual activity,AKT1 (human),101%
same,residual activity,INSRR (human),96.3%
same,residual activity,PIM1 (human),108%
same,residual activity,RPS6KA4 KD2 (human),94.2%
same,residual activity,[2],97.1%
same,residual activity,SRC (human),94.8%
same,residual activity,FYN (human),116%
same,residual activity,INSR (human),93.8%
same,residual activity,STK11 (human),97.4%
same,residual activity,KDR (human),95.8%
same,residual activity,[3],103%
CS(=O)(=O)CCNCc1ccc(-c2ccc3ncnc(Nc4ccc(OCc5cccc(F)c5)c(Cl)c4)c3c2)o1,residual activity,TEC (human),101%
same,residual activity,MAP3K10 (human),108%
same,residual activity,EPHB1 (human),104%
same,residual activity,MERTK (human),95.4%
same,residual activity,FLT3 (human),92.6%
same,residual activity,RIPK2 (human),110%
same,residual activity,CLK2 (human),95.1%
same,residual activity,RPS6KB2 (human),100%
same,residual activity,BLK (human),95.9%
same,residual activity,TSSK2 (human),89.9%
same,residual activity,MELK (human),88.5%
same,residual activity,MAP3K9 (human),112%
same,residual activity,CSNK1E (human),99.4%
same,residual activity,AURKB (human),98.4%
same,residual activity,PKN1 (human),106%
same,residual activity,ROCK2 (human),92.7%
same,residual activity,ERBB4 (human),11.2%
same,residual activity,WNK2 (human),102%
same,residual activity,PHKG1 (human),95.7%
same,residual activity,MYLK2 (human),108%
same,residual activity,FGFR4 (human),96.6%
same,residual activity,CDK7 CCNH MNAT1 (human),109%
same,residual activity,GRK5 (human),97.2%
same,residual activity,HIPK4 (human),108%
same,residual activity,CSNK1G3 (human),104%
same,residual activity,DYRK4 (human),103%
same,residual activity,[1],94.5%
same,residual activity,DAPK1 (human),107%
same,residual activity,MAPK9 (human),98.1%
same,residual activity,DCLK2 (human),101%
same,residual activity,CDK4 CCND3 (human),104%
same,residual activity,AKT1 (human),95.6%
same,residual activity,INSRR (human),104%
same,residual activity,PIM1 (human),99%
same,residual activity,RPS6KA4 KD2 (human),93.4%
same,residual activity,[2],95.5%
same,residual activity,SRC (human),102%
same,residual activity,FYN (human),99.4%
same,residual activity,INSR (human),105%
same,residual activity,STK11 (human),106%
same,residual activity,KDR (human),96.6%
same,residual activity,[3],72.4%
COc1cc2ncnc(Nc3ccc(OCc4ccccc4)cc3)c2cc1OC,residual activity,TEC (human),106%
same,residual activity,MAP3K10 (human),94.9%
same,residual activity,EPHB1 (human),101%
same,residual activity,MERTK (human),19.5%
same,residual activity,FLT3 (human),56.4%
same,residual activity,RIPK2 (human),61.6%
same,residual activity,CLK2 (human),102%
same,residual activity,RPS6KB2 (human),108%
same,residual activity,BLK (human),88.2%
same,residual activity,TSSK2 (human),104%
same,residual activity,MELK (human),102%
same,residual activity,MAP3K9 (human),96.5%
same,residual activity,CSNK1E (human),98.4%
same,residual activity,AURKB (human),50.3%
same,residual activity,PKN1 (human),101%
same,residual activity,ROCK2 (human),96%
same,residual activity,ERBB4 (human),9.19%
same,residual activity,WNK2 (human),91.6%
same,residual activity,PHKG1 (human),100%
same,residual activity,MYLK2 (human),97.5%
same,residual activity,FGFR4 (human),106%
same,residual activity,CDK7 CCNH MNAT1 (human),98.8%
same,residual activity,GRK5 (human),105%
same,residual activity,HIPK4 (human),100%
same,residual activity,CSNK1G3 (human),92.9%
same,residual activity,DYRK4 (human),97.6%
same,residual activity,[1],101%
same,residual activity,DAPK1 (human),98.5%
same,residual activity,MAPK9 (human),106%
same,residual activity,DCLK2 (human),102%
same,residual activity,CDK4 CCND3 (human),102%
same,residual activity,AKT1 (human),103%
same,residual activity,INSRR (human),99.9%
same,residual activity,PIM1 (human),102%
same,residual activity,RPS6KA4 KD2 (human),105%
same,residual activity,[2],103%
same,residual activity,SRC (human),102%
same,residual activity,FYN (human),86.3%
same,residual activity,INSR (human),100%
same,residual activity,STK11 (human),102%
same,residual activity,KDR (human),96.8%
same,residual activity,[3],102%
